Reference: US20210002242A1, “DIACYLGLYCEROL LACTONE COMPOUND, PREPARATION METHOD THEREFOR, AND IMMUNOSTIMULATOR CONTAINING SAME AS ACTIVE INGREDIENT” (priority 2018, published 2021)

Columns and labels:
CXCL8 (IL-8) = assay: Increase in expression of CXCL8 (IL-8) in THP-1 cells, human IL-8 ELISA of culture supernatant; format: cell-based; conditions: for CXCL8 [IL-8] concentration (pg/μl, average ± deviation): THP-1 cells, 24 hours, supernatant
Description: In RPMI (Hyclone, Thermo Scientific) medium to which 10% Fetal Bovine Serum was added, THP-1 cells, a human macrophage family, were suspended at a concentration of 1×10^5 cells/ml, and culture was conducted in a 5% CO2 humidified incubator at 37° C. The cultured THP-1 cells were inoculated into a 12 well plate by 1×10^6 cells/ml and stabilized for 30 minutes. Then, the culture solution was treated with a diacylglycerol lactone compound of the type shown in Table 2 below for 1 hour and then was treated with Gemcitabine (2 μg/ml) of a cell stimulator, and subsequent further incubation was conducted for 24 hours. Thereafter 1.5 ml of the culture supernatant was collected for each well and centrifuged (at 3000 rpm, 5 minutes) to recover the supernatant. The CXCL8 (IL-8) level in the recovered supernatant was measured according to the manual provided by the human IL-8 ELISA set (BD Biosciences). The day before ELISA was carried out, the IL-8 capture antibody was diluted in phosphate buffered saline, coated on a microwell, and then stored at 4° C. overnight. Each well was washed three times with a washing buffer solution and then blocked with 2% Bovine Serum Albumin (BSA) for 1 hour at room temperature. After washing with washing buffer solution three times, 100 μl of sample was dispensed into each well and left at room temperature for 2 hours. Detection antibody which was washed 3 times with washing buffer and diluted was dispensed into each well and allowed to react at room temperature for 1 hour and left at room temperature for 1 hour. Thereafter, the secondary HRP conjugated antibody was reacted at room temperature for 30 minutes, washed three times with a washing buffer, and treated with 50 μl of stop solution for each well, and then the optical density was measured at 450 nm with an ELISA microplate leader.

RAW264.7 cells = assay: Cytotoxicity assessment, cell viability by EZ-Cytox (WST), OD 450 nm; format: cell-based, mouse; conditions: 100 μg/ml, 24 hours
Description: In DMEM (Dulbecco Modified Eagle Medium) medium with 10% Fetal Bovine Serum added, RAW264.7 cells, which are cells of the mouse macrophage family, were suspended at a concentration of 1×10^5 cells/ml, and then were inoculated into 96 well plates by 100 μl, and culture was conducted for 15 hours. […] According to the EZ-CYTOX (Daeillab_EZ-1000) manual for measuring the amount of living cells using WST, 10 μl of EZ-Cytox was added to each well and reacted for up to 2 hours from 30 minutes, and then an optical density (OD) at 450 nm was measured.

[1] = compound 100 μg/ml for 1 hour, then Gemcitabine 2 μg/ml

Row | Compound | CXCL8 [IL-8] concentration (pg/μl, average ± deviation) (CXCL8 (IL-8); [1]) [pg/µL] | RAW264.7 cell viability (RAW264.7 cells) [%] | secretion of CXCL8 (IL-8) chemokine, increase compared to the negative control group (CXCL8 (IL-8); THP-1 cells treated with Gemcitabine) | CXCL8 [IL-8] concentration (pg/μl, average ± deviation) (CXCL8 (IL-8); Gemcitabine 2 μg/ml alone) [pg/µL]
1 | CCCCCC=CCC=CCCCCCCCC(=O)OCC1(COC(=O)C(C)CC)CCC(=O)O1 (mixture of isomers) [EC-A126] | 352.96 ± 0.45 |  |  | 
2 | CCCCC/C=C\C/C=C\CCCCCCCC(=O)OCC1(COC(=O)CC)CCC(=O)O1 (racemic) [EC-A115] | 1202.80 ± 38.09 |  |  | 
3 | CCCCC/C=C\C/C=C\CCCCCCCC(=O)OCC1(COC(=O)CCC)CCC(=O)O1 (racemic) [EC-A116] | 865.54 ± 12.31 | 141.09 ± 5.01 |  | 
4 | CCCCC/C=C\C/C=C\CCCCCCCC(=O)OCC1(COC(=O)CCCC)CCC(=O)O1 (racemic) [EC-A117] | 568.12 ± 8.21 |  |  | 
5 | CCCCC/C=C\C/C=C\CCCCCCCC(=O)OCC1(COC(=O)CCCCC)CCC(=O)O1 (racemic) [EC-A118] | 622.16 ± 6.61 |  |  | 
6 | CCCCC/C=C\C/C=C\CCCCCCCC(=O)OCC1(COC(=O)CCCCCC)CCC(=O)O1 (racemic) [EC-A119] | 343.61 ± 7.75 |  |  | 
7 | CCCCC/C=C\C/C=C\CCCCCCCC(=O)OCC1(COC(=O)CCCCCCCC)CCC(=O)O1 (racemic) [EC-A120] | 237.80 ± 3.64 |  |  | 
8 | CCCCC/C=C\C/C=C\CCCCCCCC(=O)OCC1(COC(=O)CCCCCCCCCCC)CCC(=O)O1 (racemic) [EC-A121] | 215.38 ± 4.33 | 114.25 ± 33.11 |  | 
9 | CCCCC/C=C\C/C=C\CCCCCCCC(=O)OCC1(COC(=O)CCCCCCCCCCCCC)CCC(=O)O1 (racemic) [EC-A122] | 190.06 ± 4.56 | 105.48 ± 3.92 |  | 
10 | CCCCC/C=C\C/C=C\CCCCCCCC(=O)OCC1(COC(=O)C(C)C)CCC(=O)O1 (racemic) [EC-A124] | 663.45 ± 2.96 |  |  | 
11 | CCCCC/C=C\C/C=C\CCCCCCCC(=O)OCC1(COC(=O)C(C)(C)C)CCC(=O)O1 (racemic) [EC-A125] | 252 ± 11.86 |  |  | 
12 | CCCCC/C=C\C/C=C\CCCCCCCC(=O)OCC1(COC(=O)C2CC2)CCC(=O)O1 (racemic) [EC-A127] | 532.32 ± 1.82 |  |  | 
13 | CCCCC/C=C\C/C=C\CCCCCCCC(=O)OCC1(COC(=O)C2CCCCC2)CCC(=O)O1 (racemic) [EC-A128] | 351.03 ± 7.75 |  |  | 
14 | CCCCCCCCCCCCCCCC(=O)OCC1(COC(=O)C(C)C)CCC(=O)O1 (racemic) [EC-A131] | 1256.19 ± 15.96 | 100.25 ± 14.78 |  | 
15 | CCCCCCCCCCCCCCCC(=O)OCC1(COC(=O)C(C)(C)C)CCC(=O)O1 (stereo not shown) [EC-A132] | 921.35 ± 52.46 | 96.58 ± 5.01 |  | 
16 | CCCCCCCCCCCCCCCC(=O)OCC1(COC(=O)C(C)CC)CCC(=O)O1 (stereo not shown) [EC-A133] | 1176.67 ± 29.42 | 114.45 ± 3.46 |  | 
17 | CCCCCCCCCCCCCCCC(=O)OCC1(COC(=O)C2CC2)CCC(=O)O1 (stereo not shown) [EC-A134] | 1266.03 ± 2.05 | 110.06 ± 4.19 |  | 
18 | CCCCCCCCCCCCCCCC(=O)OCC1(COC(=O)C2CCCCC2)CCC(=O)O1 (stereo not shown) [EC-A135] | 310.87 ± 14.37 |  |  | 
19 | CCCCCCCCCCCCCCCC(=O)OCC1(COC(=O)CCCCCCCCCCC)CCC(=O)O1 (stereo not shown) [EC-A136] | 138.93 ± 2.96 | 95.54 ± 3.01 |  | 
20 | CCCCCCCCCCCCCCCC(=O)OCC1(COC(=O)CCCCCCCCCCCCC)CCC(=O)O1 (stereo not shown) [EC-A137] | 133.12 ± 8.43 | 93.87 ± 8.85 |  | 
21 | Nc1ccn([C@@H]2O[C@H](CO)[C@@H](O)C2(F)F)c(=O)n1 [Gemcitabine, reference compound] |  |  | about five | 101.83 ± 1.59
